# Columns and labels:
# Test in all cases: biochemical
# Parameters in all cases: KINOMEscan active-site competition binding, percent of control (100 = no competition)
# Conditions in all cases: competition binding, percent control
# PRKCD = PRKCD (Homo sapiens, UniProt Q05655)
# PDPK1 = PDPK1 (Homo sapiens, UniProt O15530)
# BLK = BLK (Homo sapiens, UniProt P51451)
# MLK3 = target: T1, MLK3 (Homo sapiens, UniProt Q16584)
# T1 construct: gene MAP3K11
# GAK = GAK (Homo sapiens, UniProt O14976)
# PRKD2 = PRKD2 (Homo sapiens, UniProt Q9BZL6)
# MAP4K5 = MAP4K5 (Homo sapiens, UniProt Q9Y4K4)
# PRKG1 = PRKG1 (Homo sapiens, UniProt Q13976)
# EGFR(E746-A750del) = EGFR(E746-A750del) (Homo sapiens, UniProt P00533, DEL746-750)
# HPK1 = target: T2, HPK1 (Homo sapiens, UniProt Q92918)
# T2 construct: gene MAP4K1
# BMX = BMX (Homo sapiens, UniProt P51813)
# [1] = target: T3, TYK2(JH2domain-pseudokinase) (Homo sapiens, UniProt P29597)
# T3 construct: JH2domain-pseudokinase
# MAK = MAK (Homo sapiens, UniProt P20794)
# CAMK2G = CAMK2G (Homo sapiens, UniProt Q13555)
# SRPK3 = SRPK3 (Homo sapiens, UniProt Q9UPE1)
# TAK1 = target: T4, TAK1 (Homo sapiens, UniProt O43318)
# T4 construct: gene MAP3K7
# DAPK3 = DAPK3 (Homo sapiens, UniProt O43293)
# PKN2 = PKN2 (Homo sapiens, UniProt Q16513)
# MKK7 = target: T5, MKK7 (Homo sapiens, UniProt O14733)
# T5 construct: gene MAP2K7
# PRKX = PRKX (Homo sapiens, UniProt P51817)
# CDC2L2 = target: T6, CDC2L2 (Homo sapiens, UniProt Q9UQ88)
# T6 construct: gene CDK11A
# PIM2 = PIM2 (Homo sapiens, UniProt Q9P1W9)
# ERBB2 = ERBB2 (Homo sapiens, UniProt P04626)
# Sequence of PRKX (P51817 whole entry): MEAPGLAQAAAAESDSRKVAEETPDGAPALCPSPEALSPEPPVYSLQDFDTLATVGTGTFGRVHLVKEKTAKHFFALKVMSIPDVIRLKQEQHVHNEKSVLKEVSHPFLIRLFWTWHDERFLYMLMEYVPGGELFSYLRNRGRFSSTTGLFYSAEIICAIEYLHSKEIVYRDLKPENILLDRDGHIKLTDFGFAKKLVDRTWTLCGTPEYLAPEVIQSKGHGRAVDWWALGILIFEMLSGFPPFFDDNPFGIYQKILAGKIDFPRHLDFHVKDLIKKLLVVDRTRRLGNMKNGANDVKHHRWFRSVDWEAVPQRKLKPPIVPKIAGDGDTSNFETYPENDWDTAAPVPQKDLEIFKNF
# T3 sequence (P29597 whole entry): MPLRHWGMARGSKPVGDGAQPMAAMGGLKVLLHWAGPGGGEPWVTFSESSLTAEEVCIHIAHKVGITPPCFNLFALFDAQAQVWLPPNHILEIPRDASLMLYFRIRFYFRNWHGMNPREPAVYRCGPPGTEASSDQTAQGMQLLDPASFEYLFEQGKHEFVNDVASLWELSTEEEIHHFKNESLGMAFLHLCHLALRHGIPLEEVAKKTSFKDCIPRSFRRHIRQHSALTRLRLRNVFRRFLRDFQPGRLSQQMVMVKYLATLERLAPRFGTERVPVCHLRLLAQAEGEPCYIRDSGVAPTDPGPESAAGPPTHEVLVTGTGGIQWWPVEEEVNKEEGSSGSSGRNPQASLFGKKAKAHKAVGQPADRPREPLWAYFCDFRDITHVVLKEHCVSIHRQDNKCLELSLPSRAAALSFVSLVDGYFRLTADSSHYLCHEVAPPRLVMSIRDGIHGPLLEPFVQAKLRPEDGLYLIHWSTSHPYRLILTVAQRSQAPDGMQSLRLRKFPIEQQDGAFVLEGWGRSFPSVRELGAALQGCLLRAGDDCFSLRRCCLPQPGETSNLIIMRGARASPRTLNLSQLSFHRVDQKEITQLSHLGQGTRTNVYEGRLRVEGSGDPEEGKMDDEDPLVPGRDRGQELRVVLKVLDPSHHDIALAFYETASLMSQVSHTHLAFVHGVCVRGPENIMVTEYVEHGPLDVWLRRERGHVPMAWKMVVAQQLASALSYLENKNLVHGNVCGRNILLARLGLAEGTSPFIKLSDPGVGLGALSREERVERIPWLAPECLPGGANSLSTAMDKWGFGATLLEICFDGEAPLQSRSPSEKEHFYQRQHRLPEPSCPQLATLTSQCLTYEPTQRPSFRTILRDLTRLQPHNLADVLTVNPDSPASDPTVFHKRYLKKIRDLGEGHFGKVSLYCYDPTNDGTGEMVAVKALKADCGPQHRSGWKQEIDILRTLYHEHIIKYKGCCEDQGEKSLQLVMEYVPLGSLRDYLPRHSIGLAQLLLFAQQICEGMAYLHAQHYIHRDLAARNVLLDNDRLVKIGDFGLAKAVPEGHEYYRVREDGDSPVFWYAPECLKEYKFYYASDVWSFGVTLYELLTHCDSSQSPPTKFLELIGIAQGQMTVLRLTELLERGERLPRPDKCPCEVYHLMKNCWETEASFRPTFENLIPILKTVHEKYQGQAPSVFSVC
# Sequence of PKN2 (Q16513 whole entry): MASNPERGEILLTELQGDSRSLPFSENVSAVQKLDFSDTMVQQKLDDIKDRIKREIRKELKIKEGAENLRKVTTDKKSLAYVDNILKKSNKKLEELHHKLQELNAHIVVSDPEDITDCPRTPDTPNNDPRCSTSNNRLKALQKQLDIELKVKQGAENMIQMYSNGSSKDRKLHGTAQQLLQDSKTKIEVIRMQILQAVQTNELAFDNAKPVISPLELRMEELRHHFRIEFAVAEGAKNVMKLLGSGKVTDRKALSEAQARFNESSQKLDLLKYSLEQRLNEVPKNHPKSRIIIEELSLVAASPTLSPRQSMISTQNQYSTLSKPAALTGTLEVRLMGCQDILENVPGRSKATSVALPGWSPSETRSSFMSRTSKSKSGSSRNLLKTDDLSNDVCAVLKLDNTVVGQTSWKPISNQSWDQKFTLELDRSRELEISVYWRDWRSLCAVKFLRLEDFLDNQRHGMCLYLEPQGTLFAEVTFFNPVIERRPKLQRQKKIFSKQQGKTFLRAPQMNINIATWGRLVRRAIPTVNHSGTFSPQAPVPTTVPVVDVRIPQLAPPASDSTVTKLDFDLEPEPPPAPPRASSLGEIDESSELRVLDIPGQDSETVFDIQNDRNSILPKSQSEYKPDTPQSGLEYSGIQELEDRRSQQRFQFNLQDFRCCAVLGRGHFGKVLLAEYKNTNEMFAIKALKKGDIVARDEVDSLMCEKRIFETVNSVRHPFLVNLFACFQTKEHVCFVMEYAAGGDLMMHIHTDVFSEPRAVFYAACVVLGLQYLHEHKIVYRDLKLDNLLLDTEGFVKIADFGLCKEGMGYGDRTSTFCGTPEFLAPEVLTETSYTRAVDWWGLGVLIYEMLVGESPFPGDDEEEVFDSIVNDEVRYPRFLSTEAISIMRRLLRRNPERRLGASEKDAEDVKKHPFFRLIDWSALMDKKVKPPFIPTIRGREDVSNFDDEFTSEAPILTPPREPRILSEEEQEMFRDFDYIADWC
# T4 sequence (O43318 whole entry): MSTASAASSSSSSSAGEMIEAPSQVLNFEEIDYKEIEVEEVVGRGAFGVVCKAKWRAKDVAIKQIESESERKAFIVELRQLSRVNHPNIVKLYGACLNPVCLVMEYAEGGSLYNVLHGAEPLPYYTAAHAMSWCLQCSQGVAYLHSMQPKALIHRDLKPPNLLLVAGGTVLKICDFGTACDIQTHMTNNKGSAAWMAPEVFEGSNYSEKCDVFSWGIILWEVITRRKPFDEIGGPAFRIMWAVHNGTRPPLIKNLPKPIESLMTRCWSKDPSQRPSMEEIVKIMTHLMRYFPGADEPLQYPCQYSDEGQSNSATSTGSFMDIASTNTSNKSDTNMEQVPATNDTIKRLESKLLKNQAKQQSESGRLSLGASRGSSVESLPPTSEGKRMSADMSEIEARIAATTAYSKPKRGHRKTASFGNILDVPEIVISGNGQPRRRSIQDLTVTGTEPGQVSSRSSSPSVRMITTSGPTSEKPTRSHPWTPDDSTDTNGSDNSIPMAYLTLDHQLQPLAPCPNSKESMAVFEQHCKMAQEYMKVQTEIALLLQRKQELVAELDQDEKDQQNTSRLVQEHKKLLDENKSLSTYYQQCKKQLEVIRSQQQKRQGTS
# Sequence of PRKG1 (Q13976 whole entry): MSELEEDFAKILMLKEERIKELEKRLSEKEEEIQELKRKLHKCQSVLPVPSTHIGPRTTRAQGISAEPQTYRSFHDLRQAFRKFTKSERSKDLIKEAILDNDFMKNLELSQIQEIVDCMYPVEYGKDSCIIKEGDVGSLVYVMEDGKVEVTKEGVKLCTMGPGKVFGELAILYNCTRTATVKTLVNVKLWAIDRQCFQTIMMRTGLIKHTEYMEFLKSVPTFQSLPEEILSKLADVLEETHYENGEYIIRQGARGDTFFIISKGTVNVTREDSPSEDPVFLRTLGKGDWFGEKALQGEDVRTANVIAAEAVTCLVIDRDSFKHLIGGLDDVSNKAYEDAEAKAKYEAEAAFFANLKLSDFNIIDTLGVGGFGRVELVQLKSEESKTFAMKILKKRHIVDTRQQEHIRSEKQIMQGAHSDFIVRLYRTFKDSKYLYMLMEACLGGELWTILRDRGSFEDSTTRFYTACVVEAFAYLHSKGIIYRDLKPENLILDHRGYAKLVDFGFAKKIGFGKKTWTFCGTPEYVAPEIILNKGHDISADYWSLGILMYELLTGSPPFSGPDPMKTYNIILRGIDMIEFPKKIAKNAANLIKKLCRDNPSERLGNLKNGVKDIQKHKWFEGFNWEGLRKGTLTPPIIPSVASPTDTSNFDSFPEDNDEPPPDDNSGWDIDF
# T1 sequence (Q16584 whole entry): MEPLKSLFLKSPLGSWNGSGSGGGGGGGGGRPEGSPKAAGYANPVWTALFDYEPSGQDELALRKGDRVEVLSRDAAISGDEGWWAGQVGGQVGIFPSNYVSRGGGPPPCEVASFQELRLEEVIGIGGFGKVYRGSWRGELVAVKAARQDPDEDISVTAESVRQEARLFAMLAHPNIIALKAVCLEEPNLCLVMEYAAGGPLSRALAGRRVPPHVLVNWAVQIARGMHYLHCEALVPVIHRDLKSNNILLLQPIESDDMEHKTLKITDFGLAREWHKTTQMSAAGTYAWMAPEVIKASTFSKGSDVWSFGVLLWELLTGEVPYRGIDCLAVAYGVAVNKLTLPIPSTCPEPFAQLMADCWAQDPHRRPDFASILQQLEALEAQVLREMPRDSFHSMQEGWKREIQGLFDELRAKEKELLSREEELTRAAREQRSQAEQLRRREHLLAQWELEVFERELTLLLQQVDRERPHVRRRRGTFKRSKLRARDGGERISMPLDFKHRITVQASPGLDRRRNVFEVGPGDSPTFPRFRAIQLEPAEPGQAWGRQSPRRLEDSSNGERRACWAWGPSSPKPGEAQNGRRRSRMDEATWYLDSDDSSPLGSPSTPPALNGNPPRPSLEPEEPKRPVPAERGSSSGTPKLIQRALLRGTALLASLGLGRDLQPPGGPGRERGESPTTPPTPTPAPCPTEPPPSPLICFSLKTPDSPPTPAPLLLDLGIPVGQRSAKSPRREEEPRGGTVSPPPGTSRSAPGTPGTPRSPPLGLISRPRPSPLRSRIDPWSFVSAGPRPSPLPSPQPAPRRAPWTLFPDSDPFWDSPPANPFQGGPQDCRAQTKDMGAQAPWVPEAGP
# T5 sequence (O14733 whole entry): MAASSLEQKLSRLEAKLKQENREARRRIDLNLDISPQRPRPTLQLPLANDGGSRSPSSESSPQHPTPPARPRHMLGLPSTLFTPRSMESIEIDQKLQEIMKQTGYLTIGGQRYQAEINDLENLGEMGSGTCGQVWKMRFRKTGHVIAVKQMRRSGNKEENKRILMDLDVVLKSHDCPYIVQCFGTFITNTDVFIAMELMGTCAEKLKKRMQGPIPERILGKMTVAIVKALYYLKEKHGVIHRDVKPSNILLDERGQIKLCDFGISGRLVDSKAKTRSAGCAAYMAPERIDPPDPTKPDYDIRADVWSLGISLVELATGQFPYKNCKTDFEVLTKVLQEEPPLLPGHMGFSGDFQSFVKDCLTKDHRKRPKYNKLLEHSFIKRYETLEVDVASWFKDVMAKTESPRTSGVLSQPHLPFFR
Compound,remaining binding at 10 µM (PRKCD),remaining binding at 10 µM (PDPK1),remaining binding at 10 µM (BLK),remaining binding at 10 µM (MLK3),remaining binding at 10 µM (GAK),remaining binding at 10 µM (PRKD2),remaining binding at 10 µM (MAP4K5),remaining binding at 10 µM (PRKG1),remaining binding at 10 µM (EGFR(E746-A750del)),remaining binding at 10 µM (HPK1),remaining binding at 10 µM (BMX),remaining binding at 10 µM [1],remaining binding at 10 µM (MAK),remaining binding at 10 µM (CAMK2G),remaining binding at 10 µM (SRPK3),remaining binding at 10 µM (TAK1),remaining binding at 10 µM (DAPK3),remaining binding at 10 µM (PKN2),remaining binding at 10 µM (MKK7),remaining binding at 10 µM (PRKX),other results
"COc1ccc(-c2cnccc2-c2cnc(NC(=O)C(C)C)s2)c(C(F)(F)F)c1 [CRT0105446, N-{5-[3-(4-Methoxy-2-trifluoromethyl-phenyl)-pyridin-4-yl]-hiazol-2-yl}-isobutyramide]",90%,100%,100%,100%,92%,74%,100%,100%,100%,100%,100%,100%,0.6%,80%,93%,79%,83%,96%,97%,100%,remaining binding at 10 µM (CDC2L2): 59%; remaining binding at 10 µM (PIM2): 100%; remaining binding at 10 µM (ERBB2): 94%
"Cc1ccc(-c2cnccc2-c2cnc(Nc3ccc(O)cc3)s2)c(Cl)c1 [CRT0105950, 4-{5-[3-(2-Chloro-4-methyl-phenyl)-pyridin-4-yl]-thiazol-2-ylamino}-phenol]",76%,28%,9.2%,43%,22%,26%,32%,72%,78%,22%,81%,81%,2%,49%,62%,33%,44%,26%,38%,100%,remaining binding at 10 µM (CDC2L2): 89%; remaining binding at 10 µM (PIM2): 100%; remaining binding at 10 µM (ERBB2): 80%

# — paper PMC4770715, “LIM kinase inhibitors disrupt mitotic microtubule organization and impair tumor cell proliferation” (Oncotarget, 2015)
